Test results as given in the Biogen ADME set (Fang et al. 2023).
In brackets after ≈: the same amount, converted by molar mass.

Conditions: for aqueous solubility: pH 6.8

| Compound | MDR1-MDCK efflux ratio | intrinsic clearance, human liver microsomes [mL/min/kg] | aqueous solubility [µg/mL] | intrinsic clearance, rat liver microsomes [mL/min/kg] | fraction unbound, human plasma | fraction unbound, rat plasma |
| --- | --- | --- | --- | --- | --- | --- |
| N#Cc1cc(F)c(C(=O)Nc2ccnc(NC(=O)[C@H]3C[C@H]3F)c2)c(Cl)c1 | 42.6 | ≤ 4.74 | 67.5 (≈ 179 µM) | – | – | – |
| Cc1cnc(NC(=O)c2cc(S(=O)(=O)N(C)C)ccc2N2CCCC2)s1 | 19.9 | – | 0.21 (≈ 0.532 µM) | – | – | – |
| Cc1cccc(NC2CCN(Cc3ccncc3)CC2)n1 | 0.496 | 18.6 | 37.6 (≈ 133 µM) | 238 | – | – |
| O=C(c1noc2c1CCCC2)N1CCN(c2ncccn2)CC1 | 0.624 | 10.3 | 53.3 (≈ 170 µM) | 2910 | – | – |
| COC(C)(C)CCNC(=O)CC1CC(C)(C)NC(C)(C)C1 | 12.9 | ≤ 4.74 | – | 41.1 | – | – |
| Cc1cc(C)c2c(N(C)CCC(C)C)ncnc2n1 | 0.862 | 14.3 | 37.5 (≈ 145 µM) | 1220 | – | – |
| C=CCN(C)CCCCCCOc1ccc(C(=O)c2ccc(Br)cc2)c(F)c1 | – | 31.1 | 21.4 (≈ 47.7 µM) | 320 | – | – |
| CN1CCCn2c1cc(OCc1cc(F)c(Oc3ccc(C(F)(F)F)nc3)c(F)c1)nc2=O | 12 | 19.6 | – | 126 | – | – |
| Cc1ccc(NC(=O)CN2C(=O)CN(C)C2=O)cc1C | 3.8 | ≤ 4.74 | – | 62.9 | – | – |
| CC(C)c1nc(/C=C/c2cnn(C)c2)ncc1C(=O)O | – | ≤ 4.74 | – | ≤ 10.7 | – | – |
| Cc1ccc(-c2ccc(-c3nccn3CCCn3cnnc3)o2)cc1 | 123 | 15.7 | 36.8 (≈ 110 µM) | 541 | – | – |
| O=C(NC1CCCCCC1)c1ccc(CSc2nc3ccccc3[nH]2)cc1 | 2.99 | 161 | 2.71 (≈ 7.14 µM) | 1900 | – | – |
| Cc1ccc(CC(=O)NCc2cccc(C(=O)Nc3ccccc3)c2)cc1 | 1.52 | – | 0.38 (≈ 1.06 µM) | – | – | – |
| CN(CCNC(=O)NC1CCOCC1)C1CCCC1 | 18.2 | ≤ 4.74 | – | 184 | – | – |
| CCNc1nc(-c2cccnc2)nc(C)c1C | 0.577 | 49.7 | – | 69.8 | – | – |
| CC(=O)c1ccc(OCCCCN2CCCC2)cc1 | 0.895 | ≤ 4.74 | 36.3 (≈ 139 µM) | 453 | – | – |
| CN(CCSc1ccc2nnc(C(F)F)n2n1)Cc1ccccc1 | 0.653 | 246 | – | 3180 | – | – |
| Cc1sc2nc(CN3CCCC3)nc(N)c2c1C | 17.6 | ≤ 4.74 | 44.6 (≈ 170 µM) | 2760 | – | – |
| Cc1cnc(C(=O)N[C@H]2CCOC[C@@H]2O)cc1Cc1ccc(-c2cscn2)cc1 | 6.89 | ≤ 4.74 | 61.9 (≈ 151 µM) | 34.8 | – | – |
| CC(=O)N1CCC(Nc2ncnc3cc(-c4ccc(Br)cc4)sc23)CC1 | 5.91 | 6.41 | 10.2 (≈ 23.6 µM) | 43.2 | – | – |
| CCc1cc2c(Nc3cnn(CC)c3)ncnc2s1 | – | 40.7 | 43 (≈ 157 µM) | 102 | – | – |
| N#Cc1cc(CN2CCC(Nc3ncnc4sc(Cl)cc34)CC2)ccc1F | 9.4 | 123 | – | 1680 | – | – |
| Cc1ccc(-c2csc(CC(N)=O)n2)cc1C | 0.752 | – | 35.9 (≈ 146 µM) | – | – | – |
| CC(C)Cc1sc(N)nc1-c1ccc(P(=O)(O)O)o1 | 0.425 | ≤ 4.74 | 69.3 (≈ 229 µM) | ≤ 10.7 | – | – |
| Cn1ncc2c(Oc3cccc(Oc4ccccn4)c3)ncnc21 | 0.672 | 10.1 | 39.8 (≈ 125 µM) | 369 | – | – |
| CC(C)(C=C(C#N)C(=O)N1CCC[C@@H](n2nc(-c3ccc(Oc4ccccc4)cc3F)c3c(N)ncnc32)C1)N1CCN(C2COC2)CC1 | 35.9 | 535 | 35.8 (≈ 53.7 µM) | 1140 | 0.0189 | 0.0133 |
| COc1ccc(-c2ccc(CN(CCN(C)C)Cc3ccncc3)cc2)cc1 | 2.06 | 31.9 | 55.8 (≈ 149 µM) | 465 | – | – |
| O=C(Nc1ccccn1)c1cccc2ccccc12 | – | 131 | 35.3 (≈ 142 µM) | 140 | – | – |
